Data from patent publication US20120288482A1, “THERAPEUTIC AGENT (Y-39983) FOR CORNEAL ENDOTHELIAL DYSFUNCTION” (priority 2009, published 2012).

Assays:
[1] = system: rabbit corneal endothelial cells; assay: In vitro wound healing model of rabbit corneal endothelial cells (Example 9); format: cell-based
Experimental: In this Example, test substances and control substance prepared in the same manner as in Example 4 were used. Corneoscleral tissue was collected from 10 rabbit eyeballs purchased from Funakoshi Corporation. The corneoscleral tissue was immersed in DMEM (Invitrogen, Cat. #12320-032) containing 1% penicillin/streptomycin (Invitrogen, Cat. #15140-122), and incubated at 37° C. for 1 hour. The Descemet's membrane was stripped together with intact corneal endothelial cells, immersed in a culture medium (DMEM, 10% FBS, 2 ng/mL bFGF (Invitrogen, Cat. #13256-029), 1% penicillin/streptomycin) containing 2 mg/mL Collagenase A (Roche, Cat. #1088793), and incubated at 37° C. for 2 hours. The cells were collected by centrifugation, washed with the culture medium, and seeded in a T25 flask (Corning Incorporated, Cat. #430639) coated with FNC coating mix (Athena ES, Cat. #0407). The flask were left standing in a 5% CO2 incubator at 37° C., the medium was exchanged every 2-3 days, and the cells were cultured to confluent. The cells that reached confluent were collected, seeded in two 6 well plates (Falcon, Cat. #3046) coated with FNC coating mix, and cultured to confluent. The prepared rabbit corneal endothelial cells were collected, seeded in a 6 well plate at a division ratio of 1:4, and cultured to confluent in the same culture medium as in the above-mentioned (1). Linear wound was created in the confluent cells using 1000 μL chip (6 wounds per well). After creating the linear wounds, the culture medium was exchanged, and 0.95 μM, 1.58 μM and 3.16 μM compound (I), 10 μM Y-27632 and 0.04% DMSO were added. Compound (I) and Y-27632 were dissolved in DMSO in advance, where the DMSO concentration was adjusted to 0.04% for both. The width of the wound at 0, 6, 12 and 24 hours after the addition was photographed over time. The wound width was measured by Image-Pro plus (Media Cybernetics, Inc.). The ratio of wound width at each hour was calculated by taking that at 0 hour after the addition of medicament as 100%, and the time-course changes of the ratio of wound width were evaluated. The ratio of wound width was applied to statistical analysis according to the Dunnett's test at each time point.

[2] = system: corneal endothelial wound; assay: Rabbit corneal endothelial wound model, topical instillation (Example 1); format: in vivo; conditions: for area of the unrepaired wound site (corneal endothelium wound area): 6 times a day, 46 hours after wound creation
Experimental: In this Example, 0.95 mM (0.03 w/v%) compound (I) instillation and 0.32 mM (0.01 w/v%) compound (I) instillation obtained by diluting the above instillation with the above-mentioned vehicle were used.
As a positive control substances, Y-27632 dihydrochloride (Wako Pure Chemical Industries, Co., Ltd., Cat. #253-00513) and fasudil hydrochloride hydrate injection (Eril (registered trade mark) drip intravenous injection, Asahi Kasei Pharma) were purchased, and Y-27632 and Fasudil were each adjusted to 10 mM with phosphate-buffered saline (PBS, Invitrogen, Cat. #14190). In addition, PBS was used as a negative control substance.
Male Japanese white rabbits (body weight 2.5-3.0 kg, 21 rabbits) were purchased from Biotek Co., Ltd. and used. They are kept in individual cages at 23±3° C. temperature, at 55±10% humidity and 12 hours artificial light cycle (lighting on; 8:00 a.m., lighting off; 8:00 p.m.). One hundred grams of solid food (Labo R stock; Nosan Corp.) are provided daily to each animal. Water is supplied by automatic watering apparatus.
3. Excision of Nictitating Membrane of Animal Before starting the test, the nictitating membrane of both eyes of the animal was excised. To be specific, each animal was set in a positioner, and the ocular surface was topically anesthetized by instillation of a topical anesthesia (Benoxil instillation 0.4%, Santen Pharmaceutical Co., Ltd.). Then, the root position of the nictitating membrane was pressed with a clamp for 30 sec, and compressing mark was cut with scissors. After excision of the nictitating membrane, the antibiotic ointment (tarivid eye ointment, Santen Pharmaceutical Co., Ltd.) was instilled to prevent infection. After 4 days from the excision of the nictitating membrane, animals confirmed to have no abnormality in the external eye including the excised site were used.
The corneal thickness of the right eye of each animal was measured with an ultrasonic pachymeter (manufactured by DGH Technologies Inc., DGH-500), and the animals were divided into 4 groups such that the corneal thickness of each group was equal. The animals used for each group were as follows. • 10 mM Y-27632 group=5 eyes • 0.32 mM compound (I) group=5 eyes • 0.95 mM compound (I) group=6 eyes • 10 mM Fasudil group=5 eyes • PBS group=21 eyes (left eye)
The animals were sytemically anesthetized by intramuscular administration of Ketalar muscular injection ([…], DAIICHI SANKYO COMPANY, LIMITED., 0.6 ml) and Celactal 2% Injection (Bayer, Ltd., 0.25 ml). Then, Benoxil instillation 0.4% (Santen Pharmaceutical Co., Ltd., one drop) was instilled and the eye was opened using a lid speculum.
A 7-mm diameter stainless dowel that had been cooled in liquid nitrogen was placed on the central cornea of both eyes of 21 animals for 15 sec. to produce an ice ball in the anterior chamber and dissociate corneal endothelial cells, whereby a corneal endothelial wound was produced.
For topical instillation, after wound creation, compound (I) instillation, Y-27632 instillation or Fasudil instillation was instilled to the right eye, and PBS was instilled to the left eye 6 times a day (4 times on the day of wound production) at 50 μL per instillation. Administration interval in one day was 2 hours. […]

Question: How did the “ratio of wound width versus control” value ([1]; 10 μM, 24 hours after addition) turn out when `C[C@@H](N)[C@H]1CC[C@H](C(=O)Nc2ccncc2)CC1` [Y-27632, reference compound] was run?
Answer: The value was “showed a difference from the control for the first time”.

Question: And the “area of the unrepaired wound site (corneal endothelium wound area)” value (shortened to “area of the unrepaired wound site”) ([2]; 10 mM instillation)?
Answer: Its value is 1.1 mm^2.

Question: For `C[C@@H](N)c1ccc(C(=O)Nc2ccnc3[nH]ccc23)cc1.Cl` [compound (I), (R)-(+)-N-(1H-pyrrolo[2,3-b]pyridin-4-yl)-4-(1-aminoethyl)benzamide monohydrochloride], which “concentration showing the highest effect in the in vitro wound healing model” value [1] is on record?
Answer: The value was “about 0.95 μM”.

Question: What about the “ratio of wound width versus control” value ([1]; 0.95 μM, 6 hours after addition, Dunnett's test) of the same molecule?
Answer: The value was “statistically significant difference from the control”.

Question: What about the wound healing effect ([1]; 1.58 μM) of the same molecule?
Answer: Its wound healing effect is “significant effect, the effect was weaker than that of the 0.95 μM compound (I)”.

Question: And the “ratio of wound width versus control” value ([1]; compound (I), 24 hours after addition, Dunnett's test)?
Answer: Its value is “statistically significant difference even 24 hours later”.

Question: And the “concentration showing a wound healing promoting effect” value ([1]; in vitro wound healing model, Example 9)?
Answer: The value was 0.95 to 1.58 µM.

Question: What about the “area of the unrepaired wound site” value ([2]; 0.32 mM instillation) of the same molecule?
Answer: Its value is 1.1 mm^2.

Question: And the “area of the unrepaired wound site” value ([2]; 0.95 mM instillation)?
Answer: The value was 0.4 mm^2.

Question: What about the “wound area compared to the PBS instillation group” value ([2]; 0.95 mM instillation, Dunnett's test) of the same molecule?
Answer: The value was “statistically significant decrease in the wound area”.
